Consider 15 compounds from patent US4239778A, “Azaprostanoic acid analogs and their use as inhibitors of platelet aggregation” (priority 1978, dated 1980).

“Also recorded” adds a separate entry of the source.

Data set [1] has as its target T1, prostaglandin synthetase (cyclooxygenase) (Bos taurus, UniProt O62664).
T1 construct: adrenochrome assay with arachidonic acid
T1 sequence (O62664 25-600): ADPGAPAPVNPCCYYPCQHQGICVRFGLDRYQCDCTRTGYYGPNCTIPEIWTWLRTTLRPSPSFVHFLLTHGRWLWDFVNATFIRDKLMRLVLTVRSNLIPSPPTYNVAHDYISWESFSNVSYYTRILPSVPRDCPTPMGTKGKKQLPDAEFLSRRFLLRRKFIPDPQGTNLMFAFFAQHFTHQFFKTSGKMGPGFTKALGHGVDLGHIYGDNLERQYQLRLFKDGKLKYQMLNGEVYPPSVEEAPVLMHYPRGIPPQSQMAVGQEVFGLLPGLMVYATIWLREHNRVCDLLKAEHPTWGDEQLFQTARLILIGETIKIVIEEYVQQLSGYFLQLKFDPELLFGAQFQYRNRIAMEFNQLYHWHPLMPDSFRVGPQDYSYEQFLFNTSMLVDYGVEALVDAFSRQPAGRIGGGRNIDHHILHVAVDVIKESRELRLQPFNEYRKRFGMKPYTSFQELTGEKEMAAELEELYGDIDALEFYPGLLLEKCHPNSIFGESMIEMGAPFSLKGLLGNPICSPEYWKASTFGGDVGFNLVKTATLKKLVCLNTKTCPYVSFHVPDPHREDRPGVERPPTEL
The data set can be described thus: Inhibition of prostaglandin synthetase (cyclooxygenase): arachidonic acid-dependent formation of adrenochrome from L-epinephrine. The class given is biochemical, bovine (seminal vesicles). The note with it: for inhibition of cyclooxygenase (in words) / inhibition at 500 µM: 5×10^-4 M; for inhibition at 500 µM: read-out: inhibitory activity on cyclooxygenase. The method, then:
A representative sample of the 13-azaprostanoic acid derivatives, and cis-15-azaprostanoic acid were tested for their effect as inhibitors of prostaglandin synthetase (cyclooxygenase). The basis of the assay is the measurement of the arachidonic acid-dependent formation of adrenochrome from L-peinephrine during prostaglandin biosynthesis [See, generally, the procedure of Takaguchi, et al., Prostaglandins, 2, 169 (1972)].
In order to check the possibility that the compounds might be inhibitors of the cyclooxygenase enzyme, they were tested in a standard prostaglandin biosynthesis assay according to the method of Takagushi, et al., Prostaglandins, 2, 169 (1972). The basis of the assay is the measurement of the arachidonic acid-dependent formation of adrenochrome from L-epinephrine during prostaglandin biosynthesis. Although the assay is an indirect measurement of cyclooxygenase activity, it offers the advantage that total enzyme activity is measured and is not limited to the measurement of any one product of the biotransformation.

In the next data set the test system is platelets (human PRP). In words: Arachidonic acid-induced platelet aggregation (method of Born). In kind it is cell-based. The note with it: for inhibition of arachidonic acid-induced platelet aggregation (in words): 10 μM inhibitor; for inhibition at 10 µM: Homo sapiens, Platelet, human PRP. The method, then:
The effect of various azaprostanoic acids of the invention on arachidonic acid-induced platelet aggregation was determined according to the method of Born, Nature, 194, 927 (1962). At a concentration of 10 μM, trans-13-azaprostanoic acid, and cis-15-azaprostanoic acid, inhibit aggregation 100% and 91%, respectively in response to 300 μM arachidonare. Both the cis and trans-13-aza-20-homoprostanoic acid analogs show significant inhibitory activity, 50% and 71%, respectively.
The relative inhibitory activities of the azaprostanoic acids were determined by varying the concentration of arachidonic acid while keeping the inhibitor concentration constant.

Data set [2] has as its system platelets (human platelet rich plasma). In words: ADP-induced primary (reversible) platelet aggregation. In kind it is cell-based. The note with it: 100 μM, 2 min. pretreatment; 10 μM ADP. The source says: No effect was observed on the ADP-induced primary aggregation of platelets.
Data set [3] concerns aspirin-treated platelets (human PRP). The data set can be described thus: Aggregation of aspirin-treated platelets by transferred externally generated endoperoxides/thromboxane A2. In kind it is cell-based. The method, then:
The effect of trans-13-azaprostanoic acid on platelet aggregation induced by externally generated endoperoxides and thromboxane A2 was investigated. The endoperoxides and thromboxane A2 were generated by the addition of 500 μM arachidonic acid to 0.75 ml of human platelet-rich plasma (PRP). […] The endoperoxides and thromboxane transferred caused the aspirin-treated platelets to aggregate.
It has been shown that the formation of thromboxanes is closely associated with the initiation of platelet aggregation and occurs rapidly (within 30 sec.) when induced by arachidonic acid. Therefore, the aggregating effect of thromboxane A2 can be studied by first generating the agent in one sample of PRP, and then transferring a portion of this to a second sample of PRP. […] Thus, any aggregation induced by transferred material is due to thromboxane A2 and/or prostaglandin endoperoxides. […] This experiment was repeated several times with identical results.

In data set [4] the test system is platelet conversion of AA to thromboxane B2 (TXB2). In words: TXB2 formation in platelet rich plasma aggregated with arachidonic acid (radioimmunoassay). The class given is cell-based. The following applies: AA 500 μM alone. The method, then: (§1) Platelet rich plasma was aggregated with 500 μM arachidonic acid and three minutes following arachidonate addition, aliquots of the plasma were drawn for TXB2 determinations.

The next data set deals with platelet rich plasma. In words: Platelet aggregation with 500 μM arachidonic acid (Table IV). The class given is cell-based. As for the experimental part:
as §1

For the next data set, the system named is thromboxane synthetase. The following applies: cited from earlier work.
For another data set, the system named is ADP-induced aggregation. The note with it: vs PGE1; cited from earlier work.
For data set [5] the following is noted: in vivo; cited from earlier work.
Another data set deals with cyclooxygenase. The following applies: cited from earlier work.
The mark [6] stands for this setting: 10^-5 M (10 μM) inhibitor, 300 μM arachidonate.
The mark [7] stands for this setting: 10^-5 M inhibitor, 400 μM arachidonate.
Setting [8] is: 10^-5 M inhibitor, 500 μM arachidonate.

Regarding `O=C(O)CCCCCC[C@@H]1CCC[C@H]1NCc1ccccc1` (relative stereo) [Example 3 trans], the “inhibition of cyclooxygenase (in words)” value in data set [1] is recorded as “did not significantly inhibit”. Moreover, the “inhibition of arachidonic acid-induced platelet aggregation (in words)” value in the data set on platelets (human PRP) is “inactive”. For the same compound, the inhibition at 10 µM with platelets (human PRP) (setting [6]), in the data set on platelets (human PRP) (setting [7]) and in the data set with platelets (human PRP) (setting [8]) was 0% in each case. Besides, the “effect on ADP-induced primary aggregation” value (“effect” for short) in [2] is “did not alter reversible, primary phase aggregation”.
As for `CCCCCCCN[C@H]1CCC[C@H]1CCCCCCC(=O)O` (relative stereo) [Example 4 cis, cis-13-Azaprostanoic acid], the “inhibition of cyclooxygenase (in words)” value in data set [1] was “did not significantly inhibit”. The inhibition at 10 µM in the data set on platelets (human PRP) (setting [6]) amounted to 43%; in the data set on platelets (human PRP) (setting [7]) it was 11%; in the data set on platelets (human PRP) (setting [8]), 0%. Moreover, the “effect” value in data set [2] is reported as “did not alter reversible, primary phase aggregation”.
As to `CCCCCCCN[C@@H]1CCC[C@H]1CCCCCCC(=O)O` (relative stereo) [Example 4 trans, trans-13-azaprostanoic acid], the “inhibition of cyclooxygenase (in words)” value in data set [1] is reported as “did not significantly inhibit”. Further, the inhibition at 10 µM in the data set with platelets (human PRP) (setting [6]) worked out at 100%; in the data set with platelets (human PRP) (setting [7]) it was 66%; in the data set with platelets (human PRP) (setting [8]), 19%. The “inhibition of platelet aggregation (in words)” value in the data set with platelets (human PRP) (summary of screening) was “potent inhibitors of platelet aggregation”. Moreover, in data set [2], the “effect” value is “did not alter reversible, primary phase aggregation”. Also, the “aggregation induced by transferred thromboxane A2/endoperoxide mixture” value in data set [3] (100 μM pre-incubation, aspirin-treated platelets) is “totally inhibited; also recorded: no aggregation was observed”.
With `CCCCCCN[C@@H]1CCC[C@H]1CCCCCCC(=O)O` (relative stereo) [Example 5 trans, trans-13-aza-20-norprostanoic acid], the “inhibition of cyclooxygenase (in words)” value in data set [1] is reported as “did not significantly inhibit”. In addition, the inhibition at 10 µM in the data set with platelets (human PRP) (setting [6]) was 14%; in the data set on platelets (human PRP) (setting [7]), 0%; with platelets (human PRP) (setting [8]), 0%.
On to `CCCCCCCCN[C@H]1CCC[C@H]1CCCCCCC(=O)O` (relative stereo) [Example 6 cis, cis-13-Aza-20-homoprostanoic acid], for which the inhibition at 500 µM in data set [1] was ~30%. Further, the results for the inhibition at 10 µM in the data set with platelets (human PRP) (setting [6]), with platelets (human PRP) (setting [7]) and with platelets (human PRP) (setting [8]) were 50%, 11% and 0%, respectively.
The corresponding values for `CCCCCCCCN[C@@H]1CCC[C@H]1CCCCCCC(=O)O` (relative stereo) [Example 6 trans, trans-13-aza-20-homoprostanoic acid] are ~30%, 71%, 7% and 0%.
Regarding `CCCCCNCC[C@H]1CCC[C@H]1CCCCCCC(=O)O` (relative stereo) [Example 8 cis, 15-Azaprostanoic acid], the inhibition at 10 µM in the data set on platelets (human PRP) (setting [6]) is 91%; with platelets (human PRP) (setting [7]) it was 16%; in the data set on platelets (human PRP) (setting [8]), 0%. For the same compound, the “effect” value in data set [2] is recorded as “did not alter reversible, primary phase aggregation”.
On to `CCCCCCCN[C@@H]1CCC[C@@H]1CCCCCCC(=O)O` (relative stereo) [cis-13-aza], for which, in the data set with platelets (human PRP), the “inhibition of arachidonic acid-induced platelet aggregation (in words)” value is “inactive”.
`CCCCC/C=C\C/C=C\C/C=C\C/C=C\CCCC(=O)O` [Arachidonic Acid (AA), Arachidonic Acid]: the “aggregation of aspirin-treated platelets by arachidonic acid” value in data set [3] (500 μM arachidonic acid, aspirin 0.5 mg/ml) was “did not cause aggregation”. In data set [4], the TXB2 was found to be 1179 ± 37 ng/mL. Besides, the “% Aggregation” value with platelet rich plasma (AA 500 μM alone) worked out at 80%.
Take `CN(C)CCCOc1nn(Cc2ccccc2)c2ccccc12` [Benzydamine]: the “inhibition of thromboxane synthetase (in words)” value with thromboxane synthetase is given as “more than twice as effective in inhibiting thromboxane synthetase than in inhibiting prostaglandin biosynthesis (cyclooxygenase)”.
On to `CCCCCC[C@H](O)/C=C/[C@H]1[C@H](O)CC(=O)[C@@H]1CCCCCCC(=O)O` [Example 20-homo-PGE1, 20-homo-PGE1], for which, in the data set on ADP-induced aggregation, the “potency relative to PGE1 as inhibitor of ADP-induced aggregation” value is on record as 3.82 times.
On to `CCCC[C@H](O)/C=C/[C@H]1[C@H](O)CC(=O)[C@@H]1CCCCCCC(=O)O` [Example 20-nor-PGE1, 20-nor-PGE1], for which, in the data set on ADP-induced aggregation, the “potency relative to PGE1 as inhibitor of ADP-induced aggregation (in words)” value is “only half as potent as PGE1”.
With `CCCCC[C@H](O)/C=C/[C@H]1C(=O)C[C@H](O)[C@@H]1C/C=C\CCCC(=O)O` [PGD2], the “biological half-life (in words)” value in [5] is “very short biological half-lives”.
For the compound `CCCCC[C@H](O)/C=C/[C@H]1[C@H](O)CC(=O)[C@@H]1CCCCCCC(=O)O` [PGE1], the “biological half-life (in words)” value in [5] is given as “very short biological half-lives”.
For `COc1ccc2c(c1)c(CC(=O)O)c(C)n2C(=O)c1ccc(Cl)cc1` [indomethacin, reference compound], the “inhibition of prostaglandin biosynthesis (in words)” value in [1] (indomethacin 2×10^-5 M) is “completely inhibited”. In data set [1] (read-out: inhibition of enzyme activity), the inhibition at 20 µM turned out to be 100%. Moreover, the “inhibition of aggregation (in words)” value in the data set with platelet rich plasma (indomethacin 20 μM) is given as “totally blocks aggregation”. The “inhibition of prostaglandin biosynthesis / cyclooxygenase (in words)” value with cyclooxygenase is reported as “inhibit prostaglandin biosynthesis by blocking the conversion of substrate fatty acids to endoperoxides”.
